Measurements from US9079910B2, “5-(1,2,3-triazol-4-yl)-7H-pyrrolo[2,3-D]pyrimidine derivatives” (Merck Patent GmbH, priority 2011, dated 2015).

What was measured:
[1] = target: T1, TANK binding kinase (TBK1) (Homo sapiens, UniProt Q9UHD2); assay: TBK1 kinase test (384-well flashplate assay); assay type: biochemical; conditions: 0.6 nM TBK1, 10 μM ATP, 30° C., 120 min
T1 sequence (Q9UHD2 1-729): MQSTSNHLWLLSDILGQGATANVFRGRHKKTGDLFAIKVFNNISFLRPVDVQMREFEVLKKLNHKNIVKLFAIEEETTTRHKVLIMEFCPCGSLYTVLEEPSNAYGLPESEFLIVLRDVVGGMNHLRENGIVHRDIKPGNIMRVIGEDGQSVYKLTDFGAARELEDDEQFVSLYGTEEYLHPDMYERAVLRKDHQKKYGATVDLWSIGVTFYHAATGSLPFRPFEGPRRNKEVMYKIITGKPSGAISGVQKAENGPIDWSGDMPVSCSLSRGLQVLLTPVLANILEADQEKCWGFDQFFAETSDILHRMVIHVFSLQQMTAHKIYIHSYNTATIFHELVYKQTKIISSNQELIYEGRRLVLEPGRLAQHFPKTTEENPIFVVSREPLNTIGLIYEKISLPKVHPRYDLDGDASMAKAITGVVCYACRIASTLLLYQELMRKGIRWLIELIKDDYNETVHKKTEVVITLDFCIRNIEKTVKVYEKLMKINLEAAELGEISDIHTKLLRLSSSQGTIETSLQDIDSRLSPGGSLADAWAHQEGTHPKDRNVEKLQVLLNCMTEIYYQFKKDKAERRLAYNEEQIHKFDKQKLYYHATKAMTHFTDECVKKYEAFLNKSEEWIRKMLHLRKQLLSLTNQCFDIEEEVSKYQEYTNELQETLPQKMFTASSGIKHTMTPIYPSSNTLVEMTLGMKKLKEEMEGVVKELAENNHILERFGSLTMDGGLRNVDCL
Protocol: The kinase assay is performed as 384-well flashplate assay. 0.6 nM TANK binding kinase (TBK1), 800 nM biotinylated MELK-derived peptide (biotin-Ah-Ah-[…]) and 10 μM ATP (with 0.25 μCi of ^33P-ATP/well) are incubated in a total volume of 50 μl (10 mM MOPS, 10 mM magnesium acetate, 0.1 mM EGTA, 1 mM DTT, 0.02% of Brij35, 0.1% of BSA, pH 7.5) with or without test substance at 30° C. for 120 min. The reaction is stopped using 25 μl of 200 mM EDTA solution, filtered off with suction after 30 min at room temperature, and the wells are washed 3 times with 100 μl of 0.9% NaCl solution. The non-specific proportion of the kinase reaction (blank) is determined using 100 nM staurosporine. Radioactivity is measured in the Topcount. IC50 values are calculated using RS1.

A2780 = assay: Vitality assay (tumour cell proliferation/vitality, Alamar Blue), A2780; assay type: cell-based; conditions: Homo sapiens, 96 h, A2780 cells, 4 days
Protocol: (§1) In the present experiment description, the inhibition of tumour cell proliferation/tumour cell vitality by active compounds is described.
(§2) The cells are sown in a suitable cell density in microtitre plates (96-well format) and the test substances are added in the form of a concentration series. After four further days of cultivation in serum-containing medium, the tumour cell proliferation/tumour cell vitality can be determined by means of an Alamar Blue test system.
(§3) The cells are cultivated in medium. At intervals of several days, the cells are detached from the culture dishes with the aid of trypsin solution and sown in suitable dilution in fresh medium. The cells are cultivated at 37° Celsius and 10% CO2. […]
(§4) In each case, 20 μl of Alamar Blue reagent are added per well, and the microtitre plates are incubated, for example, for a further seven hours in a CO2 incubator (at 37° C. and 10% CO2). The plates are measured in a reader with a fluorescence filter at a wavelength of 540 nm. […]
(§5) The absorbance value of the medium control (no cells and test substances used) is subtracted from all other absorbance values. The controls (cells without test substance) are set equal to 100 percent, and all other absorbance values are set in relation thereto (for example in % of control):
(§6) IC50 values (50% inhibition) are determined with the aid of statistics programs, such as, for example, RS1.

HCT 116 = assay: Vitality assay (tumour cell proliferation/vitality, Alamar Blue), HCT 116; assay type: cell-based; conditions: Homo sapiens, 96 h, HCT 116 cells, 4 days
Protocol: as §1, §2, §3, §4, §5, §6

IKKepsilon = target: T2, IKKepsilon (Homo sapiens, UniProt Q14164); assay: IKK kinase test (IKKepsilon) (384-well flashplate assay); assay type: biochemical; conditions: 1 nM IKK, 10 μM ATP, 30° C., 120 min
T2 sequence (Q14164 1-716): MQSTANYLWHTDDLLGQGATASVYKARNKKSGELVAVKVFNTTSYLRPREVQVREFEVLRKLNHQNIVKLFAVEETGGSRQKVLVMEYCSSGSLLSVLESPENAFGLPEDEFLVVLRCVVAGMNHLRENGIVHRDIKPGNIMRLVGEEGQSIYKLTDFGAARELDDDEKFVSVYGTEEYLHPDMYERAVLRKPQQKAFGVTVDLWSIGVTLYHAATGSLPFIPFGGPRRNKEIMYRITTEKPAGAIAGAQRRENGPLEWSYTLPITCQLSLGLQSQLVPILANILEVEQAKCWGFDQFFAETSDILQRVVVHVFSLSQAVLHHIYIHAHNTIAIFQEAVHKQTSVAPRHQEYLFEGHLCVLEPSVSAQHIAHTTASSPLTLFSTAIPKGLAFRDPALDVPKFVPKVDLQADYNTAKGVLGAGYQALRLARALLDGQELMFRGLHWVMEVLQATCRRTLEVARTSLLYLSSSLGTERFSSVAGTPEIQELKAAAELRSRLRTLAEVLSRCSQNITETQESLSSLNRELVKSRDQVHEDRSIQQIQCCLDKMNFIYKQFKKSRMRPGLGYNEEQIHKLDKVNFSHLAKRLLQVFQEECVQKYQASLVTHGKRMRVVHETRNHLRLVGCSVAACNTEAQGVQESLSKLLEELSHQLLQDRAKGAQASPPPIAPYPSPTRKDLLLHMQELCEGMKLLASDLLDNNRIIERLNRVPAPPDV
Protocol: IKK—Kinase Test (IKKepsilon)
The kinase assay is performed as 384-well flashplate assay.
1 nM IKK, 800 nM biotinylated I B (19-42) peptide (biotin-C6-C6-[…]) and 10 μM ATP (with 0.3 μCi of ^33P-ATP/well) are incubated in a total volume of 50 μl (10 mM MOPS, 10 mM magnesium acetate, 0.1 mM EGTA, 1 mM dithiothreitol, 0.02% of Brij35, 0.1% of BSA, 0.1% of BioStab, pH 7.5) with or without test substance at 30° C. for 120 min. The reaction is stopped using 25 μl of 200 mM EDTA solution, filtered off with suction after 30 min at room temperature, and the wells are washed 3 times with 100 μl of 0.9% NaCl solution. The non-specific proportion of the kinase reaction (blank) is determined using 3 μM BX-795. Radioactivity is measured in the Topcount. IC50 values are calculated using RS1.

PDK1 = target: T3, PDK1 (Homo sapiens, UniProt O15530); assay: Test for the inhibition of PDK1 (flashplate, 33P-ATP); assay type: biochemical; conditions: His6-PDK1, 4 μM ATP, 30° C., 60 min
T3 construct: His6 (N)
T3 sequence (O15530 51-556 limits assumed): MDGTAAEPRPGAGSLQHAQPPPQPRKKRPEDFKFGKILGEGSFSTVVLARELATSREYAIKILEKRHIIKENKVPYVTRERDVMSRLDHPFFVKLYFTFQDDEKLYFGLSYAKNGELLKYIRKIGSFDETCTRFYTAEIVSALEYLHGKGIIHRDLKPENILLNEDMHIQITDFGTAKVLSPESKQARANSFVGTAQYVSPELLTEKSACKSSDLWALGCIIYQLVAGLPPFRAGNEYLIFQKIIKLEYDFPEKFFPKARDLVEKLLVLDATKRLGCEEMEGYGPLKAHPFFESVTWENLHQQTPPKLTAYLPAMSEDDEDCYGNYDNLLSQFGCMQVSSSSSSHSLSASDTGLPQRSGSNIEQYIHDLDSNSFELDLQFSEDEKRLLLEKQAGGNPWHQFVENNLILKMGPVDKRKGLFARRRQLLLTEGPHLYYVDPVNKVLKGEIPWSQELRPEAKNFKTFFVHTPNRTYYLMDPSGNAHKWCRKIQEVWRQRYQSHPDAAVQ
Protocol: 4.0 Test for the Inhibition of PDK1
The experimental batches are carried out in a flashplate system with 384 wells/microtitration plate.
In each case, the PDK1 sample His6-PDK1(1-50)(3.4 nM), the PDK1 substrate biotin-bA-bA-[…] (400 nM), 4 μM ATP (with 0.2 μCi of ^33P-ATP/well) and the test substance in 50 μl of conventional experimental solution per well are incubated at 30° C. for 60 min. The test substances are employed in corresponding concentrations (if desired in a dilution series). The control is carried out without test substance. The reaction is stopped using standard methods and washed. The activity of the kinase is measured via the incorporated radioactivity in top count. In order to determine the non-specific kinase reaction (blank value), the experimental batches are carried out in the presence of 100 nM staurosporine.
The radioactivity (decompositions per minute) of the blank value (no use of test substance in the presence of staurosporine) is subtracted from all other radioactivity values. The controls (kinase activity without test substance) are set equal to 100 percent and all other radioactivity values (after subtracting the blank value) are expressed set in relation thereto (for example in % of the control).
IC50 values (50% inhibition) are determined with the aid of statistics programmes, such as, for example, RS1.

Row | IC50 [1] [µM] | IC50 (A2780) [µM] | IC50 (HCT 116) [µM] | IC50 (IKKepsilon) [µM] | IC50 (PDK1) [µM] | SMILES
1 | 0.01 to 1 | 1 to 10 | 1 to 10 | 1 to 10 | 0.01 to 1 | COCCOc1ncnc2[nH]cc(-c3cn(Cc4ccccc4)nn3)c12 [Compound A1, 5-(1-benzyl-1H-1,2,3-triazol-4-yl)-4-(2-methoxyethoxy)-7H-pyrrolo[2,3-d]pyrimidine]
2 | 0.01 to 1 |  |  | 0.01 to 1 | 0.01 to 1 | COc1ncnc2[nH]cc(-c3cn(Cc4ccccc4)nn3)c12 [Compound A2]
3 | 1 to 10 |  |  | 1 to 10 | 1 to 10 | c1ccc(Cn2cc(-c3c[nH]c4ncncc34)nn2)cc1 [Compound A6, 5-(1-benzyl-1H-1,2,3-triazol-4-yl)-7H-pyrrolo[2,3-d]pyrimidine]
4 | > 10 |  |  | 1 to 10 | 1 to 10 | Fc1cccc(C(CCN2CCCCC2)n2cc(-c3c[nH]c4ncncc34)nn2)c1F (centres unmarked) [Compound A9, 5-{1-[1-(2,3-difluorophenyl)-3-piperidin-1-ylpropyl]-1H-1,2,3-triazol-4-yl}-7H-pyrrolo[2,3-d]pyrimidine]
